{"source": "patent US12370202B2", "about": "“Methods and compositions for inhibiting the NLRP3 inflammasome and/or LON protease” (TRITERPENOID THERAPEUTICS, INC., priority 2019, dated 2025)", "key": {"[1]": {"test_system": "ARH77 cells", "assay": "MM cell proliferation (confluence), IncuCyte imaging", "format": "cell-based, human", "conditions": "72 hours", "protocol": "(§1) FIG. 2 is a bar graph. CDDO-2P-Im inhibits proliferation of multiple myeloma cell line in vitro. 5T33MM, RPMI8226, and ARH77 cells were seeded in 96-well plates and incubated with CDDO-2P-Im (50 nM-150 nM). Confluence (cell proliferation) was measured using IncuCyte imaging after 72 hours. *p<0.01 compared to control.\n(§2) FIG. 3 is a bar graph. […] Shown here are results for 5T33MM (50 nM TTX01/7.5 nM IXZ); RPMI8226 (100 nM TTX01/7.5 nM IXZ); and ARH77 (150 nM TTX01/10 nM IXZ). Confluence (cell proliferation) was measured using IncuCyte imaging after 72 hours.\n(§3) To examine tumor-intrinsic effects of CDDO-2P-IM in the 5T33MM cell line and in human MM cells, conducted a series of in vitro studies was conducted. For these experiments, 96-well plates were first coated in poly-L-ornithine before cells were seeded (in triplicate), including the murine 5T33MM and the human RPMI8226, and ARH77 cell lines (15,000 cells per well). Cells were incubated in IncuCyte™ Live-Cell Analysis System for 72 hours (images were taken every 4 hours). To define dose-dependent effect of CDDO-2P-IM, cells were exposed to concentrations ranging from 50 nM to 150 nM. To examine potential synergy of CDDO-2P-IM with IXZ, MM cells were exposed to IXZ (7 nM-10 nM) either alone or in combination with CDDO-2P-IM."}, "[2]": {"test_system": "RPMI8226 cells", "assay": "MM cell proliferation (confluence), IncuCyte imaging", "format": "cell-based, human", "conditions": "72 hours", "protocol": "as §1, §2, §3"}, "[3]": {"test_system": "CCL2", "assay": "CCL2 expression in LPS-stimulated human macrophages, RT-qPCR", "format": "cell-based", "conditions": "500 pM, 16 hours pretreatment, then 10 ng/ml LPS 24 hours", "protocol": "FIG. 10 is a bar graph. CDDO-Me, CDDO-Im, CDDO-2P-Im, and CDDO-3P-Im inhibit expression of CCL2 in human macrophages at picomolar concentrations.\nHuman peripheral blood monocytes were isolated using CD14 magnetic beads and differentiated with 20 ng/ml M-CSF for with 5 days and pretreated or not with 300 nM CDDO-Me; 500 pM CDDO-Im; 500 pM CDDO-2p-Im; 500 pM CDDO-3p-Im for 16 hours, followed by stimulation with 10 ng/ml LPS for an additional 24 hours. Total RNA was extracted and analyzed by RT-qPCR (Tagman) for cytokine expression."}, "[4]": {"assay": "Drug levels in brain after systemic dosing, HPLC/Mass Spec", "format": "in vivo, Mice", "protocol": "Mice (3 per group) were treated with single intraperitoneal (i.p.) doses of either 1 micromole (low dose) or 2 micromoles (high dose) of CDDO-2P-Im in DMSO. Brains were analyzed either 3 or 6 hours after dosing. Brains were homogenized in saline, then extracted with acetonitrile, and the extracts subjected to HPLC/Mass Spec analysis, using appropriate standard curves from spiked homogenates. Values obtained (in nanomoles/kg of brain) were: 270+/−80 (low dose, 3 hours); 300+/−90 (low dose, 6 hours); 2,600+/−2,200 (high dose, 3 hours); and 540+/−260 (high dose, 6 hours).\nA second experiment with oral or i.p. dosing of 1 micromole of CDDO-2P-Im, and analysis at 6 hours, confirmed the above results, with drug levels in brain ranging from 140 to 900 nanomoles/kg of brain in 10 different samples from cerebral cortex."}}, "data": [{"smiles": "CC1(C)CC[C@]2(C(=O)n3cnc(-c4ccccn4)c3)CC[C@]3(C)[C@H](C(=O)C=C4[C@@]5(C)C=C(C#N)C(=O)C(C)(C)[C@@H]5CC[C@]43C)[C@@H]2C1", "note": "[CDDO-2P-Im, 1-[2-Cyano-3,12-dioxooleana-1,9(11)-dien-28-oyl]-4(-pyridin-2-yl)-1H-imidazole]", "values": [{"measurement": "proliferation (confluence)", "setting": "[1]; 50 nM-150 nM", "result": "significant dose-dependent suppressive effects"}, {"measurement": "proliferation (confluence), combination with IXZ", "setting": "[1]; 150 nM TTX01/10 nM IXZ", "result": "act synergistically"}, {"measurement": "proliferation (confluence), agent added alone", "setting": "[1]; 150 nM TTX01 or 10 nM IXZ alone", "result": "only partially effective"}, {"measurement": "proliferation (confluence)", "setting": "[2]; 50 nM-150 nM", "result": "significant dose-dependent suppressive effects"}, {"measurement": "proliferation (confluence), combination with IXZ", "setting": "[2]; 100 nM TTX01/7.5 nM IXZ", "result": "act synergistically"}, {"measurement": "proliferation (confluence), agent added alone", "setting": "[2]; 100 nM TTX01 or 7.5 nM IXZ alone", "result": "only partially effective"}, {"measurement": "expression of CCL2", "setting": "[3]", "result": "inhibit"}, {"measurement": "level in brain", "setting": "[4]; single i.p. 1 micromole (low dose) in DMSO, 3 hours", "result": "270+/−80 nanomoles/kg of brain"}, {"measurement": "level in brain", "setting": "[4]; single i.p. 1 micromole (low dose) in DMSO, 6 hours", "result": "300+/−90 nanomoles/kg of brain"}, {"measurement": "level in brain", "setting": "[4]; single i.p. 2 micromoles (high dose) in DMSO, 3 hours", "result": "2,600+/−2,200 nanomoles/kg of brain"}, {"measurement": "level in brain", "setting": "[4]; single i.p. 2 micromoles (high dose) in DMSO, 6 hours", "result": "540+/−260 nanomoles/kg of brain"}]}]}
